PMC8808171, “Nonselective TRPC channel inhibition and suppression of aminoglycoside-induced premature termination codon readthrough by the small molecule AC1903” (The Journal of Biological Chemistry, 2022)
Entries after “also recorded” stand apart in the source; their conditions may differ.

Legend:
hPiezo1 = molecular target: T1, hPiezo1 (Homo sapiens, UniProt Q92508); assay: [Ca2+]i recordings (Fura-2), Piezo1 in HEK T-REx cells; assay type: cell-based
T1 construct: expressed in transfected cells; host or cells: HEK T-REx (tetracycline-induced)
T1 sequence (Q92508 whole entry): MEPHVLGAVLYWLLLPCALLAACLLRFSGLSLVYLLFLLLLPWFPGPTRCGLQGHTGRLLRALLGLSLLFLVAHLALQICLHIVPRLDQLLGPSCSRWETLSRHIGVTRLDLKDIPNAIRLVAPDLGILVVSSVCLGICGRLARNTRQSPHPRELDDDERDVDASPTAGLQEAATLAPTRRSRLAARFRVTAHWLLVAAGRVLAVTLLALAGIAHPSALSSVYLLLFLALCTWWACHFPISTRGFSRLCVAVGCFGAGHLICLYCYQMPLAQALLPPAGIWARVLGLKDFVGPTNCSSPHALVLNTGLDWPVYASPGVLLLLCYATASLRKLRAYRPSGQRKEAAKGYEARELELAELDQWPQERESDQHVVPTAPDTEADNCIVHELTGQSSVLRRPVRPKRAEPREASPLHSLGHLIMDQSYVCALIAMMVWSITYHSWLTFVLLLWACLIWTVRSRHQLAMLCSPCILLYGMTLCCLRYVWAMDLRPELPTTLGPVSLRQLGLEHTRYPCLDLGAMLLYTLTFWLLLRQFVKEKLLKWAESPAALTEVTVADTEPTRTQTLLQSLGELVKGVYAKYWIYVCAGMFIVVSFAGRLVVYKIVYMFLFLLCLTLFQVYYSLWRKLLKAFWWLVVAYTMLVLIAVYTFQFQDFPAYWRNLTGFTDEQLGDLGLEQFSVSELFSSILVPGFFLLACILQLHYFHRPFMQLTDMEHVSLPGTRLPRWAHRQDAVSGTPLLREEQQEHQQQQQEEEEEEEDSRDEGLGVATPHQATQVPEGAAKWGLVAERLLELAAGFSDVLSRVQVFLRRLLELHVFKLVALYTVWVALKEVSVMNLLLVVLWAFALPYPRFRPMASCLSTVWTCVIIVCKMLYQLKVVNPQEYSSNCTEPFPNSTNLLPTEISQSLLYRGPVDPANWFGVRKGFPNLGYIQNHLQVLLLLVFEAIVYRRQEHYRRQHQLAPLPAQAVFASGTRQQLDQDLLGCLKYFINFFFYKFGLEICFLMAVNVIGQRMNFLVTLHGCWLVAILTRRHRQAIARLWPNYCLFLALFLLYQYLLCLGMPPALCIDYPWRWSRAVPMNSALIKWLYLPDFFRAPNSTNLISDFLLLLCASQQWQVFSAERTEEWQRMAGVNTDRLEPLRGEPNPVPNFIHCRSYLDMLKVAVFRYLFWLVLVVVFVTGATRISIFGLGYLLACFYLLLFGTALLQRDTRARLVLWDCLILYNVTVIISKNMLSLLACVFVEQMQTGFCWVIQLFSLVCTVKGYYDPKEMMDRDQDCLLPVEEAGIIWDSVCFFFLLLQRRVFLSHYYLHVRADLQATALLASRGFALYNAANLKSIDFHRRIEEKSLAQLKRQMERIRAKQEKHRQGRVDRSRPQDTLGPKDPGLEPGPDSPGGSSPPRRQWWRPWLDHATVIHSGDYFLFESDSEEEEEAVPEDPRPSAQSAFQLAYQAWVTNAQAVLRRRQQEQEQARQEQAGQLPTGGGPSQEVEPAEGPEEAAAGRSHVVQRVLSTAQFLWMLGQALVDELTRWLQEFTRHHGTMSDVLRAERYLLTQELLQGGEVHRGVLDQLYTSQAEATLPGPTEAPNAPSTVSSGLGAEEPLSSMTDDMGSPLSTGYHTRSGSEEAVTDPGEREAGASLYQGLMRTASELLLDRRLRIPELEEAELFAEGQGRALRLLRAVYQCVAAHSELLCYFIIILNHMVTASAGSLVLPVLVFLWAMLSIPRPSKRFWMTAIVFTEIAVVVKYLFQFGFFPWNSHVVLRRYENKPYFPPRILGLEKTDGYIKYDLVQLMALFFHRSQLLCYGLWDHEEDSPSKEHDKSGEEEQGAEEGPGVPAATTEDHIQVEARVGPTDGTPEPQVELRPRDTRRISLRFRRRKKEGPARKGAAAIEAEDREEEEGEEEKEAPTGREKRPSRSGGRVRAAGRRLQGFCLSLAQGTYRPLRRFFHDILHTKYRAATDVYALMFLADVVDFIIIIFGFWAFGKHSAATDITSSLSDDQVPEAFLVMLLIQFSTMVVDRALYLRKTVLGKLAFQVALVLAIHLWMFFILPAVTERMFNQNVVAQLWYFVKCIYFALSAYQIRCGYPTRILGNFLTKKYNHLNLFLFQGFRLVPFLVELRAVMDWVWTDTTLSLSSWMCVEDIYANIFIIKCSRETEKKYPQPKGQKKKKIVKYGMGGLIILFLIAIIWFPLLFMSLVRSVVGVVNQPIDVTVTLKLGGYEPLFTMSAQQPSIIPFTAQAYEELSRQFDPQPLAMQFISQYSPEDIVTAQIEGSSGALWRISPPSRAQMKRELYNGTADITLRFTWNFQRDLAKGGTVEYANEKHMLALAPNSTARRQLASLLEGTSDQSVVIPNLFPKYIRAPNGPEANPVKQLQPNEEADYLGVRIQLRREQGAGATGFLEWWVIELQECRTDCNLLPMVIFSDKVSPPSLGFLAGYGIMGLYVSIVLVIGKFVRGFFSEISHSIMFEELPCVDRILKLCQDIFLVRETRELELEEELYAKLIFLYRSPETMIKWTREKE
Experimental: Based on the findings described above, we wondered whether AC1903—which is typically used as a TRPC5 inhibitor at concentrations of 30–100 μM in cellular assays ([29], [56])—might have limited selectivity for TRPC5 channels and whether its effect on intracellular G418 levels and PTC readthrough might be the consequence of inhibition of other or multiple targets. All well-characterized TRPC channel inhibitors reported to date modulate multiple TRP(C) channels ([34], [35], [36]). […] Because limited data for the selectivity of AC1903 are available in the public domain, we decided to profile AC1903 against a selection of calcium-permeable cation channels by intracellular calcium ([Ca^2+]i) recordings using well-characterized cell lines and TRP channel activators ([46], [57], [58]), and the Ca^2+ indicator Fura-2. In these assays, cells (HEK 293, HEK T-REx, or CHO) overexpressing the relevant ion channel protein and loaded with Fura-2 AM (a cell-permeable precursor of Fura-2) were preincubated with various concentrations of AC1903 or vehicle (DMSO) for 30 min. Then, changes in ratiometric fluorescence (from background) were recorded upon addition of the respective ion channel activator.
HEK T-REx cells expressing tetracycline-inducible TRPC4, TRPC5, TRPC5–C1,TRPC4–C1, and hPiezo1 have been described previously ([46], [57], [59], [78]). […]

[1] = tested on: TRPC3, TRPC4, TRPC5, TRPC6, TRPC4–C1, TRPC5–C1, endogenous TRPC1:C4 channels; assay: Summary of TRPC channel inhibition by AC1903; assay type: cell-based; details: TRPC3, TRPC4, TRPC5, TRPC6, TRPC4–C1, TRPC5–C1, endogenous TRPC1:C4 in A498; read-out: IC50 values over multiple TRPC channels
Source text: Nonsense mutations, which occur in ∼11% of patients with genetic disorders, introduce premature termination codons (PTCs) that lead to truncated proteins and promote nonsense-mediated mRNA decay. Aminoglycosides such as G418 permit PTC readthrough and so may be used to address this problem. However, their effects are variable between patients, making clinical use of aminoglycosides challenging. In this study, we tested whether TRPC nonselective cation channels contribute to the variable PTC readthrough effect of aminoglycosides by controlling their cellular uptake. […] In addition, our data strengthen the hypothesis that nonselective calcium channels are involved in aminoglycoside uptake.
[Ca^2+]i recordings were carried out using the ratiometric Ca^2+ dye Fura-2. 24 h prior to experiments, cells were plated either onto black, clear bottom poly-D-lysine-coated 96-well plates (HEK cells) or clear 96-well plates (A498 cells, CHO cells) at 50,000 cells per well (HEK cells) or 20,000 cells per well (A498 cells, CHO cells). For tetracycline-inducible HEK T-REx cells, protein expression was induced with tetracycline (TRPC channels: 1 μg ml^−1; hPiezo1: 100 ng ml^−1) at this point. […]

c1ccc(Cn2c(NCc3ccco3)nc3ccccc32)cc1 [AC1903]
inhibition of Yoda1-activated Piezo1 channels (hPiezo1; AC1903 up to 30 μM): does not affect; also recorded: did not inhibit
IC50 (hPiezo1; HEK T-REx, activator Yoda1 (3 μM)): > 100 µM
IC50 [1]: 1.8 to 18 µM
